pIC50: −log10 of the molar value. Activity calls are given as the source filed them. The calls are words filed in the database; no cut-off is given here.
Tests used:
Cricetulus griseus [1] = species on record: Cricetulus griseus; assay: Inhibition of PTP1B in CHOK1 cells assessed as increase in phosphorylation of GSK-3beta at Ser9 residue at 20 uM measured after 48 hrs by Western blot analysis; format: cell-based
[2] = molecular target: T1, Tyrosine-protein phosphatase non-receptor type 1 (Homo sapiens) (UniProt P18031); assay: Inhibition of human recombinant full length PTP1B expressed in Escherichia coli cells at 5 uM using pNPP as substrate preincubated with enzyme for 5 mins followed by incubation with substrate for 10 mins by spectrophotometry analysis relative to control
T1 sequence (whole entry): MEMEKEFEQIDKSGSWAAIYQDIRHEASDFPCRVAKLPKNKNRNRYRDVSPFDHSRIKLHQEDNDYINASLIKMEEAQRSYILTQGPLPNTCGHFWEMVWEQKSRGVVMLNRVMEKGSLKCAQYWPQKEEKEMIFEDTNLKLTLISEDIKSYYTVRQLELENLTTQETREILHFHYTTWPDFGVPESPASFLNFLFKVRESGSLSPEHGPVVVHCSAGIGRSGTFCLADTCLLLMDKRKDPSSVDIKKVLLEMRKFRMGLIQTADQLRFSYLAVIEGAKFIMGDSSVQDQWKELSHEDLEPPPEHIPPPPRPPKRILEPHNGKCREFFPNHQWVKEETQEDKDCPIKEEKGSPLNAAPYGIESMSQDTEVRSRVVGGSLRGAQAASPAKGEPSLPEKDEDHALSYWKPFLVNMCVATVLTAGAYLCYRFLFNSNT

Cricetulus griseus [3] = species on record: Cricetulus griseus; assay: Inhibition of PTP1B in CHOK1 cells assessed as increase in phosphorylation of AKT at Ser473 residue at 20 uM measured after 48 hrs by Western blot analysis; format: cell-based
[4] = molecular target: T1, Tyrosine-protein phosphatase non-receptor type 1 (Homo sapiens); assay: Inhibition of human recombinant full length PTP1B expressed in Escherichia coli cells at 1 uM using pNPP as substrate preincubated with enzyme for 5 mins followed by incubation with substrate for 10 mins by spectrophotometry analysis relative to control
CHO-K1 = assay: Decrease in PTP1B protein expression in CHOK1 cells at 20 uM measured after 48 hrs by Western blot analysis; format: functional, cell-based; settings: Cricetulus griseus
[5] = molecular target: T1, Tyrosine-protein phosphatase non-receptor type 1 (Homo sapiens); assay: Inhibition of human recombinant full length PTP1B expressed in Escherichia coli cells at 10 uM using pNPP as substrate preincubated with enzyme for 5 mins followed by incubation with substrate for 10 mins by spectrophotometry analysis relative to control
HepG2 [6] = assay: Increase in glucose consumption in human HepG2 cells assessed as glucose concentration in the medium treated at 0.4 to 10 uM after incubating cells in the medium containing glucose measured after 24 hrs by glucose oxidase method; format: functional, cell-based
[7] = Inhibition of baker's yeast alpha-glucosidase using p-nitrophenyl alpha-D-glucopyranoside as substrate measured after 30 mins by spectrophotometry analysis; parameters: species or system Saccharomyces cerevisiae
INS1 [8] = assay: Increase in insulin secretion in high glucose-treated rat INS-1 cells preincubated with compound and 40 mM glucose for 48 hrs followed by stimulation with KRB buffer containing 5 to 30 mM glucose for 60 mins and measured by ELISA; format: functional, cell-based
INS1 [9] = assay: Increase in insulin secretion in high glucose-treated rat INS-1 cells at 0.15 uM preincubated with compound and 40 mM glucose for 48 hrs followed by stimulation with KRB buffer containing 5 to 30 mM glucose for 60 mins and measured by ELISA; format: functional, cell-based
HepG2 [10] = assay: Increase in glucose consumption in human HepG2 cells assessed as glucose concentration in the medium treated at 500 uM after incubating cells in the medium containing glucose measured after 24 hrs by glucose oxidase method; format: functional, cell-based
Mus musculus [11] = assay: Antihyperlipidemic activity in STZ-induced type-2 diabetes Kunming mouse model assessed as serum total cholesterol level at 50 mg/kg, po for 4 weeks (reference value: 9.75 +/-0.11 mM); format: functional
Mus musculus [12] = assay: Antidiabetic activity in STZ-induced type-2 diabetes Kunming mouse model assessed as decrease in postprandial glucose level at 50 mg/kg, po for 2 hrs by glucometer analysis; format: functional, organism-based
Mus musculus [13] = assay: Antidiabetic activity in STZ-induced type-2 diabetes Kunming mouse model assessed as increase in glucose tolerance at 50 to 100 mg/kg, po for 13 days followed by overnight fasting and later orally treated with glucose for 60 mins and measured after 120 mins by OGTT; format: functional, organism-based
Mus musculus [14] = assay: Antidiabetic activity in STZ-induced type-2 diabetes Kunming mouse model assessed as decrease in blood glucose AUC at 50 mg/kg, po for 14 days followed by overnight fasting and later orally treated with maltose for 60 mins and measured after 120 mins by OMTT; format: functional
Mus musculus [15] = assay: Antihyperlipidemic activity in STZ-induced type-2 diabetes Kunming mouse model assessed as serum triglyceride level at 100 mg/kg, po for 4 weeks (reference value: 3.08 +/- 0.84 mM); format: functional
Mus musculus [16] = assay: Antihyperlipidemic activity in STZ-induced type-2 diabetes Kunming mouse model assessed as serum triglyceride level at 50 mg/kg, po for 4 weeks (reference value: 3.08 +/- 0.84 mM); format: functional
Mus musculus [17] = assay: Antidiabetic activity in STZ-induced type-2 diabetes Kunming mouse model assessed as decrease in blood glucose AUC at 100 mg/kg, po for 14 days followed by overnight fasting and later orally treated with maltose for 60 mins and measured after 120 mins by OMTT; format: functional
Mus musculus [18] = assay: Antihyperlipidemic activity in STZ-induced type-2 diabetes Kunming mouse model assessed as serum total cholesterol level at 100 mg/kg, po for 4 weeks (reference value: 9.75 +/-0.11 mM); format: functional
Mus musculus [19] = assay: Antidiabetic activity in STZ-induced type-2 diabetes Kunming mouse model assessed as decrease in blood glucose AUC at 50 to 100 mg/kg, po administered for 4 weeks by glucometric analysis; format: functional, organism-based
Mus musculus [20] = assay: Antihyperlipidemic activity in STZ-induced type-2 diabetes Kunming mouse model assessed as decrease in serum triglyceride level at 50 mg/kg, po for 4 weeks relative to diabetic control; format: functional; settings: 672 h
Mus musculus [21] = assay: Antihyperlipidemic activity in STZ-induced type-2 diabetes Kunming mouse model assessed as decrease in serum total cholesterol level at 100 mg/kg, po for 4 weeks relative to diabetic control; format: functional; settings: 672 h
Mus musculus [22] = assay: Antidiabetic activity in STZ-induced type-2 diabetes Kunming mouse model assessed as decrease in fasting blood glucose level at 50 to 100 mg/kg, po administered for 4 weeks by glucometric analysis; format: functional, organism-based
Mus musculus [23] = assay: Antihyperlipidemic activity in STZ-induced type-2 diabetes Kunming mouse model assessed as decrease in serum triglyceride level at 100 mg/kg, po for 4 weeks relative to diabetic control; format: functional; settings: 672 h
Mus musculus [24] = assay: Antihyperlipidemic activity in STZ-induced type-2 diabetes Kunming mouse model assessed as decrease in serum total cholesterol level at 50 mg/kg, po for 4 weeks relative to diabetic control; format: functional; settings: 672 h

| SMILES | Activity (Cricetulus griseus [1]) | inhibition [2] | Activity (Cricetulus griseus [3]) | inhibition [4] | inhibition (CHO-K1) | inhibition [5] | Activity (HepG2 [6]) | pIC50 [7] | Activity (Mus musculus [11]) | Activity (Mus musculus [16]) | also measured |
| --- | --- | --- | --- | --- | --- | --- | --- | --- | --- | --- | --- |
| COc1ccc(-c2cc(=O)c3c(O)cc(O)cc3o2)cc1 [ACACETIN] | Active | 36.3% | Active | 38.2% | Active | 32% | Active | < 4.00 | – | – | – |
| COc1ccc(-c2cc(=O)c3c(O)cc(O[C@@H]4O[C@H](CO)[C@@H](O)[C@H](O)[C@H]4O)cc3o2)cc1O | Active | 23.4% | Active | 27.7% | Active | 29.8% | Active | < 4.00 | – | – | Activity (INS1 [8]): Dose-dependent effect |
| O=c1cc(-c2ccc(O)c(O)c2)oc2cc(O)cc(O)c12 [LUTEOLIN] | Active | 40.8% | Active | 19.8% | Active | 39.9% | Active | 4.78 | – | – | – |
| COc1ccc(Cl)cc1C(=O)NCCc1ccc(S(=O)(=O)NC(=O)NC2CCCCC2)cc1 | – | – | – | – | – | – | – | – | – | – | Activity (INS1 [9]): Active |
| CN(C)C(=N)NC(=N)N | – | – | – | – | – | – | – | – | – | – | Activity (HepG2 [10]): Active |
| COc1ccc(-c2cc(=O)c3c(O)cc(O[C@@H]4O[C@H](CO[C@@H]5O[C@@H](C)[C@H](O)[C@@H](O)[C@H]5O)[C@@H](O)[C@H](O)[C@H]4O)cc3o2)cc1O [DIOSMIN] | Active | 32.8% | Active | 36.3% | Active | 30.5% | Active | < 4.00 | 9.18 mM | 2.04 mM | inhibition (Mus musculus [12]): Active; Activity (Mus musculus [13]): Active; inhibition in vivo at 50 mg/kg (Mus musculus [14]): 11.2%; Activity (Mus musculus [15]): 2.24 mM; inhibition in vivo at 100 mg/kg (Mus musculus [17]): 13.5%; Activity (Mus musculus [18]): 8.94 mM; inhibition (Mus musculus [19]): Active; inhibition in vivo at 50 mg/kg (Mus musculus [20]): 33.8%; inhibition in vivo at 100 mg/kg (Mus musculus [21]): 8.3%; inhibition (Mus musculus [22]): Active; inhibition in vivo at 100 mg/kg (Mus musculus [23]): 27.3%; Activity (INS1 [8]): Dose-dependent effect |
| C[C@H]1O[C@H](O[C@H]2[C@H](O)[C@@H](O)[C@@H](O[C@H]3[C@H](O)[C@@H](O)C(O)O[C@@H]3CO)O[C@@H]2CO)[C@H](O)[C@@H](O)[C@@H]1N[C@H]1C=C(CO)[C@@H](O)[C@H](O)[C@H]1O (some centres not stated) [ACARBOSE] | – | – | – | – | – | – | – | 3.63 | 9.61 mM | 3.02 mM | – |
| O=c1cc(-c2ccc(O)cc2)oc2cc(O)cc(O)c12 [APIGENIN] | Active | 20.2% | Active | 29.8% | Active | 39.2% | Active | 5.04 | 7.6 mM | 3.13 mM | inhibition in vivo at 50 mg/kg (Mus musculus [24]): 22.1%; inhibition (Mus musculus [12]): Active; Activity (Mus musculus [13]): Active; Activity (Mus musculus [15]): 3.06 mM; Activity (Mus musculus [18]): 8.22 mM; inhibition (Mus musculus [19]): Active; inhibition in vivo at 100 mg/kg (Mus musculus [21]): 15.7%; inhibition (Mus musculus [22]): Active |
| COc1ccc(-c2cc(=O)c3c(O)cc(O)cc3o2)cc1O | Active | 27.1% | Active | 22.8% | Active | 28.3% | Active | – | – | – | – |

From ChEMBL document CHEMBL4364244, “New insights into the biological activities of Chrysanthemum morifolium: Natural flavonoids alleviate diabetes by targeting α-glucosidase and the PTP-1B signaling pathway” (Eur J Med Chem, 2019)
